These results are taken from ChEMBL document CHEMBL1135191, “Novel cyclourethane-derived HIV protease inhibitors: a ring-closing olefin metathesis based strategy” (Bioorg Med Chem Lett, 2002).

The target in assay [1] is Human immunodeficiency virus type 1 protease (Human immunodeficiency virus 1, UniProt Q72874). As to the kind of experiment: Compound was tested for its inhibitory potency against human immunodeficiency virus -1 (HIV-1 protease).
The target of assay [2] is Human immunodeficiency virus type 1 protease (Human immunodeficiency virus 1) (UniProt Q72874).
Assay [3] has as its system Human immunodeficiency virus 1. In words: Compound was tested for its antiviral potency against human immunodeficiency virus type 1. Format: functional. Conditions: read-out: ID50 (the source's name).
In assay [4] the test system is MT4. In words: Inhibitory activity against HIV-1 virus in MT-4 human T-lymphoid cells. Format: functional. The conditions noted are these: read-out: ID50 (the source's name).

As usually defined, the Ki is a measure of affinity in units of concentration, obtained from inhibition or displacement.

For `O=C(NC(Cc1ccccc1)C(O)CN1C/C=C\CCCCCCCC(c2ccccc2)OC1=O)O[C@H]1CO[C@H]2OCC[C@H]21` (some centres not stated), the Ki in assay [1] is 229 nM.
Compound `O=C(NC(Cc1ccccc1)C(O)CN1CCCCCCCCCCCOC1=O)O[C@H]1CO[C@H]2OCC[C@H]21` (some centres not stated) yielded an inhibitory constant (Ki) in assay [1] of 80 nM.
In the case of `CC(C)(C)NC(=O)[C@@H]1C[C@@H]2CCCC[C@@H]2CN1C[C@@H](O)[C@H](Cc1ccccc1)NC(=O)[C@H](CC(N)=O)NC(=O)c1ccc2ccccc2n1`, the ID50 in assay [2] turned out to be 18 nM.
Consider `COc1ccc(S(=O)(=O)N(CC(C)C)CC(O)C(Cc2ccccc2)NC(=O)O[C@H]2CO[C@H]3OCC[C@H]32)cc1` (some centres not stated), for which the Ki in assay [1] turned out to be 0.015 nM. In assay [3], the IC50 is 1.4 nM.
For the compound `C=CCCCCCCCC(OC(=O)N(CC=C)CC(O)C(Cc1ccccc1)NC(=O)O[C@H]1CO[C@H]2OCC[C@H]21)c1ccccc1` (some centres not stated), the inhibition constant (Ki) in assay [1] was > 1000 nM.
As for `C=CCCCCCCCCN(CC(O)C(Cc1ccccc1)NC(=O)O[C@H]1CO[C@H]2OCC[C@H]21)C(=O)OCCC=C` (some centres not stated), the Ki in assay [1] is > 1000 nM.
The same measure, in the same setting: with `O=C(NC(Cc1ccccc1)C(O)CN1CCCCCCCCCCCCC(c2ccccc2)OC1=O)O[C@H]1CO[C@H]2OCC[C@H]21` (some centres not stated) the figure was 268 nM.
Same read-out and setting: with `C=CCCCCCCCOC(=O)N(CC(C)CC=C)CC(O)C(Cc1ccccc1)NC(=O)O[C@H]1CO[C@H]2OCC[C@H]21` (some centres not stated) the figure was > 1000 nM.
Still for that read-out and setting: under `O=C(NC(Cc1ccccc1)C(O)CN1CCCCCCCCCCC(c2ccccc2)OC1=O)O[C@H]1CO[C@H]2OCC[C@H]21` (some centres not stated) stands 189 nM; under `C=CCCCCCCC(OC(=O)N(CCCCC=C)CC(O)C(Cc1ccccc1)NC(=O)O[C@H]1CO[C@H]2OCC[C@H]21)c1ccccc1` (some centres not stated), 444 nM.
In the case of `CC1C/C=C\CCCCCCCCCOC(=O)N1CC(O)C(Cc1ccccc1)NC(=O)O[C@H]1CO[C@H]2OCC[C@H]21` (some centres not stated), in assay [1], affinity was put at a Ki of 53 nM.
Same read-out and setting: with `O=C(NC(Cc1ccccc1)C(O)CN1CCCCCCCCC/C=C/CC(c2ccccc2)OC1=O)O[C@H]1CO[C@H]2OCC[C@H]21` (some centres not stated) the figure was 167 nM.
For `CC(C)(C)NC(=O)[C@@H]1C[C@@H]2CCCC[C@@H]2CN1CC(O)C(Cc1ccccc1)NC(=O)O[C@H]1CO[C@H]2OCC[C@H]21` (some centres not stated), the affinity in assay [1], expressed as Ki, was 2 nM. Moreover, the IC50 in assay [3] was determined as 50 nM.
`C=CCCCCCCCCOC(=O)N(CC=C)CC(O)C(Cc1ccccc1)NC(=O)O[C@H]1CO[C@H]2OCC[C@H]21` (some centres not stated): the Ki in assay [1] was > 1000 nM.
Same read-out and setting: with `CC1CCCCCCCCCCCOC(=O)N1CC(O)C(Cc1ccccc1)NC(=O)O[C@H]1CO[C@H]2OCC[C@H]21` (some centres not stated) the figure was 30 nM.
With `C=CCCCCCCCCN(CC(O)C(Cc1ccccc1)NC(=O)O[C@H]1CO[C@H]2OCC[C@H]21)C(=O)OC(CC=C)c1ccccc1` (some centres not stated), in assay [1], the inhibition constant (Ki) is > 1000 nM.
The same measure, in the same setting: with `CC1C/C=C/CCCCCCCCOC(=O)N(CC(O)C(Cc2ccccc2)NC(=O)O[C@H]2CO[C@H]3OCC[C@H]32)C1` (some centres not stated) the figure was 11 nM.
With `O=C(NC(Cc1ccccc1)C(O)CN1CCCCCCCCCCCCOC1=O)O[C@H]1CO[C@H]2OCC[C@H]21` (some centres not stated), in assay [1], the Ki was found to be 14 nM.
Consider `CC1CCCCCCCCCCOC(=O)N(CC(O)C(Cc2ccccc2)NC(=O)O[C@H]2CO[C@H]3OCC[C@H]32)C1` (some centres not stated), for which the IC50 in assay [4] stood at 2500 nM. The Ki in assay [1] worked out at 6.1 nM.
As for `O=C(NC(Cc1ccccc1)C(O)CN1CCCC/C=C/CCCCCCC(c2ccccc2)OC1=O)O[C@H]1CO[C@H]2OCC[C@H]21` (some centres not stated), in assay [1], the Ki came out at 162 nM. This counts as sub-micromolar.
Same read-out and setting: with `O=C(NC(Cc1ccccc1)C(O)CN1CCCCCCCCC/C=C/CCOC1=O)O[C@H]1CO[C@H]2OCC[C@H]21` (some centres not stated) the figure was 88 nM; with `O=C(NC(Cc1ccccc1)C(O)CN1CCCCCCCCCCCC(c2ccccc2)OC1=O)O[C@H]1CO[C@H]2OCC[C@H]21` (some centres not stated), 357 nM.
Still for that read-out and setting: with `O=C(NC(Cc1ccccc1)C(O)CN1C/C=C\CCCCCCCCOC1=O)O[C@H]1CO[C@H]2OCC[C@H]21` (some centres not stated) the figure was 125 nM; with `C=CCCCCCCCCOC(=O)N(CC(O)C(Cc1ccccc1)NC(=O)O[C@H]1CO[C@H]2OCC[C@H]21)C(C)CC=C` (some centres not stated), > 1000 nM.
